Source: patent US10246456B2, “IRAK4 inhibiting agents” (BIOGEN MA INC., priority 2014, dated 2019)

Target: IRAK4 (Homo sapiens (Human), UniProt Q9NWZ3)
Assay: IRAK-4 AlphaScreen biochemical kinase assay
Conditions: 1 nM IRAK4, 1 mM ATP, 3.5 h at RT
In short: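 AlphaScreen read-out: streptavidin beads bind the biotinylated peptide and protein A beads bind the anti-phosphothreonine antibody, so energy transfer reports phosphorylation of the peptide. The kinase is human IRAK-4.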

Chain of IRAK4 (Q9NWZ3 whole entry, species assumed): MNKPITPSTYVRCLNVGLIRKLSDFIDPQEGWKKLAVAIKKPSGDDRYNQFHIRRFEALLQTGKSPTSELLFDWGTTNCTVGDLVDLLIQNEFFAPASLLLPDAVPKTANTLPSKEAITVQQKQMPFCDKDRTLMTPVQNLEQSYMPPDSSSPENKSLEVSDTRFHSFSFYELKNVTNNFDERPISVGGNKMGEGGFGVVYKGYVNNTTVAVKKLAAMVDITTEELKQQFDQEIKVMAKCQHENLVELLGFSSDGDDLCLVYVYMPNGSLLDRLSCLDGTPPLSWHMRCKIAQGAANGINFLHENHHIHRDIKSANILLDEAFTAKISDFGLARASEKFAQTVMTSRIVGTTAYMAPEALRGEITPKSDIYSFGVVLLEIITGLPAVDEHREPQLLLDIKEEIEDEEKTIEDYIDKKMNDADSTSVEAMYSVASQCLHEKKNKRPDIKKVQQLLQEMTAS

IC50 [nM]	Structure (SMILES)
< 100	CCC[C@H](N)c1cccc(-c2cc(C3CCOC3)c3cnn(-c4cccc(CO)n4)c3c2)n1 (stereo partly drawn) [Example 597, (6-(6-(6-((S)-1-aminobutyl)pyridin-2-yl)-4-(tetrahydrofuran-3-yl)-1H-indazol-1-yl)pyridin-2-yl)methanol]
< 100	CCC(N)c1cccc(-c2ccc3cnn(-c4cccc(CO)n4)c3c2)n1 (stereo not shown) [Example 294, (6-(6-(6-(1-aminopropyl)pyridin-2-yl)-1H-indazol-1-yl)pyridin-2-yl)methanol]
< 100	CCC[C@@H](N)c1cccc(-c2ccc3cnn(-c4cccc(C)n4)c3c2)n1 [Example 264, (R)-1-(6-(1-(6-methylpyridin-2-yl)-1H-indazol-6-yl)pyridin-2-yl)butan-1-amine]
< 100	CC(C)c1cccc(-n2ncc3ccc(-c4cccc(C(C)N)n4)cc32)n1 (stereo not shown) [Example 121, 1-(6-(1-(6-isopropylpyridin-2-yl)-1H-indazol-6-yl)pyridin-2-yl)ethanamine]
100 to 1000	Cc1cccc(-n2ncc3ccc(-c4cccc(C(N)CC(F)(F)F)n4)cc32)n1 (stereo not shown) [Example 551, 3,3,3-trifluoro-1-(6-(1-(6-methylpyridin-2-yl)-1H-indazol-6-yl)pyridin-2-yl)propan-1-amine]
< 100	CCC[C@H](N)c1cccc(-c2cc(-n3ccnn3)c3cnn(-c4cccc(CO)n4)c3c2)n1 [Example 578, (S)-(6-(6-(6-(1-aminobutyl)pyridin-2-yl)-4-(1H-1,2,3-triazol-1-yl)-1H-indazol-1-yl)pyridin-2-yl)methanol]
100 to 1000	C[C@H](N)c1cccc(-c2ccc3cnn(-c4nc(CO)ccc4F)c3c2)n1 [Example 565, (S)-(6-(6-(6-(1-aminoethyl)pyridin-2-yl)-1H-indazol-1-yl)-5-fluoropyridin-2-yl)methanol]
1000 to 10000	CN1CCCC1c1cccc(-c2ccc3cnn(-c4cccc(C(F)(F)F)n4)c3c2)n1 (stereo not shown) [Example 98, 6-(6-(1-methylpyrrolidin-2-yl)pyridin-2-yl)-1-(6-(trifluoromethyl)pyridin-2-yl)-1H-indazole]
< 100	CCC[C@H](N)c1cccc(-c2cc(COC(F)(F)F)c3cnn(-c4cccc(CO)n4)c3c2)n1 [Example 579, (S)-(6-(6-(6-(1-aminobutyl)pyridin-2-yl)-4-((trifluoromethoxy)methyl)-1H-indazol-1-yl)pyridin-2-yl)methanol]
< 100	C[C@H](N)c1cccc(-c2cc(-c3ccncn3)c3cnn(-c4cccc(CO)n4)c3c2)n1 [Example 393, (S)-(6-(6-(6-(1-aminoethyl)pyridin-2-yl)-4-(pyrimidin-4-yl)-1H-indazol-1-yl)pyridin-2-yl)methanol]
1000 to 10000	N#Cc1cccc(-c2ccc3cnn(-c4cccc(C(F)(F)F)n4)c3c2)n1 [Example 211, 6-(1-(6-(trifluoromethyl)pyridin-2-yl)-1H-indazol-6-yl)picolinonitrile]
< 100	COCCOc1cc(-c2cccc([C@@H](N)C3CC3)n2)cc2c1cnn2-c1cccc(CO)n1 [Example 588, (S)-(6-(6-(6-(amino(cyclopropyl)methyl)pyridin-2-yl)-4-(2-methoxyethoxy)-1H-indazol-1-yl)pyridin-2-yl)methanol]
< 100	CCCC[C@H](N)c1ccnc(-c2ccc3cnn(-c4cccc(CO)n4)c3c2)n1 [Example 580, (S)-(6-(6-(4-(1-aminopentyl)pyrimidin-2-yl)-1H-indazol-1-yl)pyridin-2-yl)methanol]
< 100	COc1cc(-c2cccc(C(C)N)n2)cc2c1cnn2-c1cccc(CO)n1 (stereo not shown) [Example 307, (6-(6-(6-(1-aminoethyl)pyridin-2-yl)-4-methoxy-1H-indazol-1-yl)pyridin-2-yl)methanol]
100 to 1000	CNc1cncc(-c2ccc3cnn(-c4cccc(C)n4)c3c2)c1 [Example 13, N-methyl-5-(1-(6-methylpyridin-2-yl)-1H-indazol-6-yl)pyridin-3-amine]
100 to 1000	Cc1cccc(-n2ncc3ccc(-c4cccc(C(N)C(N)=O)n4)cc32)n1 (stereo not shown) [Example 267, 2-amino-2-(6-(1-(6-methylpyridin-2-yl)-1H-indazol-6-yl)pyridin-2-yl)acetamide]
< 100	CCC[C@@H](N)c1ccnc(-c2cc(OCCOC)c3cnn(-c4cccc(CO)n4)c3c2)n1 [Example 596, (R)-(6-(6-(4-(1-aminobutyl)pyrimidin-2-yl)-4-(2-methoxyethoxy)-1H-indazol-1-yl)pyridin-2-yl)methanol]
< 100	COCCOc1cc(-c2cccc([C@@H](N)CCCO)n2)cc2c1cnn2-c1cccc(CO)n1 [Example 484, (S)-4-amino-4-(6-(1-(6-(hydroxymethyl)pyridin-2-yl)-4-(2-methoxyethoxy)-1H-indazol-6-yl)pyridin-2-yl)butan-1-ol]

IC50 [nM]	Structure (SMILES)
< 100	CCc1cccc(-c2ncc3ccc(-c4cccc(C(C)N)n4)cn23)n1 (stereo not shown) [Example 293, 1-(6-(3-(6-ethylpyridin-2-yl)imidazo[1,5-a]pyridin-6-yl)pyridin-2-yl)ethanamine]
100 to 1000	Cc1cccc(-n2ncc3ccc(-c4csc(CN)n4)cc32)n1 [Example 252, (4-(1-(6-methylpyridin-2-yl)-1H-indazol-6-yl)thiazol-2-yl)methanamine]
100 to 1000	CCC[C@H](N)c1cccc(-c2cc(N3CCOCC3=O)c3cnn(-c4cccc(CO)n4)c3c2)n1 [Example 351, (S)-4-(6-(6-(1-aminobutyl)pyridin-2-yl)-1-(6-(hydroxymethyl)pyridin-2-yl)-1H-indazol-4-yl)morpholin-3-one]
< 100	CC(N)c1cncc(-c2ccc3cnn(-c4cccc(C(F)(F)F)n4)c3c2)c1 (stereo not shown) [Example 90, 1-(5-(1-(6-(trifluoromethyl)pyridin-2-yl)-1H-indazol-6-yl)pyridin-3-yl)ethanamine]
< 100	COC(=O)c1cc(-c2cncc(N)c2)cc2c1cnn2-c1cccc(C#N)n1 [Example 49, methyl 6-(5-aminopyridin-3-yl)-1-(6-cyanopyridin-2-yl)-1H-indazole-4-carboxylate]
1000 to 10000	CC(=O)NCc1cccc(-c2ccc3cnn(-c4cccc(C)n4)c3c2)n1 [Example 253, N-((6-(1-(6-methylpyridin-2-yl)-1H-indazol-6-yl)pyridin-2-yl)methyl)acetamide]
< 100	C[C@H](N)c1cccc(-c2cc(-c3ncc(F)cn3)c3cnn(-c4cccc(CO)n4)c3c2)n1 [Example 385, (S)-(6-(6-(6-(1-aminoethyl)pyridin-2-yl)-4-(5-fluoropyrimidin-2-yl)-1H-indazol-1-yl)pyridin-2-yl)methanol]
100 to 1000	Cc1cccc(-n2ncc3ccc(-c4cccc(C(N)C(F)(F)F)n4)cc32)n1 (stereo not shown) [Example 259, 2,2,2-trifluoro-1-(6-(1-(6-methylpyridin-2-yl)-1H-indazol-6-yl)pyridin-2-yl)ethanamine]
< 100	Cc1cccc(-c2ncc3ccc(-c4cccc(N)c4)cn23)n1 [Example 42, 3-(3-(6-methylpyridin-2-yl)imidazo[1,5-a]pyridin-6-yl)aniline]
100 to 1000	Cc1cccc(-n2ncc3c(-c4nnc(C)o4)cc(-c4cccc(C(C)N)n4)cc32)n1 (stereo not shown) [Example 557, 1-(6-(4-(5-methyl-1,3,4-oxadiazol-2-yl)-1-(6-methylpyridin-2-yl)-1H-indazol-6-yl)pyridin-2-yl)ethanamine]
100 to 1000	CC(N)c1cccc(-c2ccc3cnn(-c4ccccn4)c3c2)n1 (stereo not shown) [Example 122, 1-(6-(1-(pyridin-2-yl)-1H-indazol-6-yl)pyridin-2-yl)ethanamine]
< 100	N#CC[C@H](N)c1cccc(-c2ccc3cnn(-c4cccc(CO)n4)c3c2)n1 [Example 591, (S)-3-amino-3-(6-(1-(6-(hydroxymethyl)pyridin-2-yl)-1H-indazol-6-yl)pyridin-2-yl)propanenitrile]
100 to 1000	Cc1cccc(-n2ncc3ccc(-c4nc(CN)cs4)cc32)n1 [Example 139, (2-(1-(6-methylpyridin-2-yl)-1H-indazol-6-yl)thiazol-4-yl)methanamine]
< 100	Cc1cc(-c2cc(-c3cccc([C@@H](N)CF)n3)cc3c2cnn3-c2cccc(CO)n2)nn1C [Example 391, (R)-(6-(6-(6-(1-amino-2-fluoroethyl)pyridin-2-yl)-4-(1,5-dimethyl-1H-pyrazol-3-yl)-1H-indazol-1-yl)pyridin-2-yl)methanol]
< 100	CC(N)c1cccc(-c2ccc3cnc(-c4cccc(C(F)(F)F)n4)n3c2)n1 (stereo not shown) [Example 79, 1-(6-(3-(6-(trifluoromethyl)pyridin-2-yl)imidazo[1,5-a]pyridin-6-yl)pyridin-2-yl)ethanamine]
100 to 1000	Cc1cnc(-n2ncc3ccc(-c4cccc(C(C)N)n4)cc32)s1 (stereo not shown) [Example 135, 1-(6-(1-(5-methylthiazol-2-yl)-1H-indazol-6-yl)pyridin-2-yl)ethanamine]
100 to 1000	Cc1cccc(-n2ncc3ccc(-c4cc(N)cnc4C)cc32)n1 [Example 204, 6-methyl-5-(1-(6-methylpyridin-2-yl)-1H-indazol-6-yl)pyridin-3-amine]

Structure (SMILES)	IC50 [nM]
CCC[C@H](N)c1cccc(-c2ccc3cnn(-c4cccc(C)n4)c3c2)n1 [Example 265, (S)-1-(6-(1-(6-methylpyridin-2-yl)-1H-indazol-6-yl)pyridin-2-yl)butan-1-amine]	< 100
Cc1cccc(-n2ncc3ccc(-c4ccnc(N)c4)cc32)n1 [Example 6, 4-(1-(6-methylpyridin-2-yl)-1H-indazol-6-yl)pyridin-2-amine]	100 to 1000
NC(=O)c1cc(-c2cncc(N)c2)cc2c1cnn2-c1cccc(C(F)(F)F)n1 [Example 52, 6-(5-aminopyridin-3-yl)-1-(6-(trifluoromethyl)pyridin-2-yl)-1H-indazole-4-carboxamide]	< 100
CN(C)C(=O)c1cc(-c2cncc(N)c2)cc2c1cnn2-c1cccc(C(F)(F)F)n1 [Example 60, 6-(5-aminopyridin-3-yl)-N,N-dimethyl-1-(6-(trifluoromethyl)pyridin-2-yl)-1H-indazole-4-carboxamide]	1000 to 10000
Nc1cncc(-c2ccc3cnn(-c4cccc(C(=O)O)n4)c3c2)c1 [Example 30, 6-(6-(5-aminopyridin-3-yl)-1H-indazol-1-yl)picolinic acid]	100 to 1000
